Experimental data: publication PMC7053198 (Theranostics, 2020)

Assays:
[1] = system: Panc1 cells
[2] = in vivo, ip
[3] = system: Capan-1 cells; format: cell-based, human
[4] = system: Panc0403/PS1 xenografts; format: in vivo, mouse; conditions: n=4
[5] = system: αvβ6-positive versus αvβ6-negative cell lines; format: cell-based
[6] = system: Panc0403 cells
[7] = system: PANC354, PANC253 and PANC215 PDX PDAC cells; format: cell-based, human
[8] = in vivo; conditions: female, CD1 Nu/Nu, mouse, ip, 20 ug/kg
[9] = system: Panc1 cell line; format: cell-based; conditions: after 30 min
[10] = system: A375Ppuro xenografts; format: in vivo, mouse; conditions: after 21 days
[11] = system: Capan-1 cells
[12] = system: Capan-1 PDAC xenografts; conditions: mouse, in vivo, ip
[13] = system: Colo357 cells
[14] = system: A375Pβ6 cells; format: cell-based, human; conditions: 30 min at 4°C
[15] = mouse, in vivo, ip
[16] = system: Panc0403/PS1 tumor xenografts; format: in vivo, mouse; conditions: n=4
[17] = system: A375Ppuro cells; format: cell-based, human; conditions: 30 min at 4°C
[18] = system: A375Pβ6 xenografts; conditions: mouse, in vivo, ip
[19] = system: A375Pβ6 cells
[20] = system: A375Ppuro cells
[21] = system: Capan-1 tumor xenografts; format: in vivo, mouse; conditions: n=3

COc1cc2c(cc1OCCCCCOc1cc3c(cc1OC)C(=O)N1C=C(C)C[C@H]1[C@H](O)N3C(=O)OCc1ccc(NC(=O)[C@H](C)NC(=O)[C@@H](NC(=O)CCOCCOCCOCCOCCOCCOCCOCCOCCNC(=O)CCN3C(=O)CC(SC[C@H](NC(=O)[C@@H](NC(=O)[C@H](CCCNC(=N)N)NC(=O)[C@H](C)NC(=O)[C@@H](NC(=O)[C@H](CCCCN)NC(=O)[C@H](CCC(N)=O)NC(=O)[C@H](C)NC(=O)[C@H](CC(C)C)NC(=O)[C@@H](NC(=O)[C@H](CCC(N)=O)NC(=O)[C@H](CC(C)C)NC(=O)[C@H](CC(=O)O)NC(=O)CNC(=O)[C@H](CCCNC(=N)N)NC(=O)[C@H](CC(C)C)NC(=O)[C@H](CC(N)=O)NC(=O)[C@@H]4CCCN4C(=O)[C@@H](NC(=O)[C@H](C)NC(=O)[C@H](CC(N)=O)NC(=O)CCCC[C@@H]4SC[C@@H]5NC(=O)N[C@@H]54)C(C)C)C(C)C)C(C)C)[C@@H](C)O)C(=O)O)C3=O)C(C)C)cc1)N=C[C@@H]1CC(C)=CN1C2=O (stereo partly drawn) [SG3299]
PDC αvβ6 Specificity Ratio [1]: 0.33 | IC50 ([1]; 72 h): 176 ± 116 nM | adverse effects (mouse weight, behaviour, gross histology of lung, intestine and stomach) [2]: no gross adverse effects | binding and internalisation in Capan-1 cells [3]: strong binding and entry into the cytoplasm | reduction of xenograft tumor growth compared with PBS treatment [4]: 75.8±6% | reduction of xenograft tumor growth compared with SG3511 therapy [4]: 60.4±9.8% | higher toxicity at equal dose than the non-targeted PDC SG3511 [5]: up to 15 fold | more toxic for αvβ6-expressing versus αvβ6-negative PDAC cell lines [5]: up to 78 fold | PDC αvβ6 Specificity Ratio [6]: 13.22 | IC50 ([6]; 72 h): 3.44 ± 3.29 nM | reduction of the number of spheres formed compared with control-treated spheres [7]: 72±27% | level at time molar at 2 min [8]: 11 ± 4.3 nM | level at time molar at 5 min [8]: 9.5 ± 4.3 nM | level at time molar at 0.25 h [8]: 19.2 ± 4.9 nM | level at time molar at 1 h [8]: 27.9 ± 4.2 nM | levels of internalised conjugate in αvβ6-negative Panc1 [9]: no significant difference in the levels of internalised SG3299 or SG3511 | reduction in tumor size compared with vehicle (PBS) [10]: 34.8±4.6% | PDC αvβ6 Specificity Ratio [11]: 2.80 | IC50 ([11]; 72 h): 4.19 ± 3.76 nM | effect on tumor growth [12]: significant growth inhibition | mice with tumors eliminated [12]: 4 out of 5 | reduction of tumor growth compared to PBS [12]: 97.7±2% | reduction of tumor growth compared to SG3511 [12]: 96.1±3.4% | PDC αvβ6 Specificity Ratio [13]: 10.97 | IC50 ([13]; 72 h): 2.24 ± 1.59 nM | binding to A375Pβ6 cells (MFI) [14]: dose-dependent binding | detection in urine [15]: No SG3299 was detected in the urine | increase in DNA damage (γH2AX) compared with PBS [16]: 5.5 fold | increase in DNA damage (γH2AX) compared with SG3511 [16]: 2.9 fold | reduction of epithelial cell number (CK) compared with PBS [16]: 44.2±18.1% | reduction of epithelial cell number (CK) compared with SG3511 [16]: 41.2±19.1% | reduction of epithelial cell number (E-cadherin) compared with PBS [16]: 46±11% | reduction of epithelial cell number (E-cadherin) compared with SG3511 [16]: 32.1±34.6% | reduction of proliferation (Ki67) compared with PBS [16]: 60±13.1% | reduction of proliferation (Ki67) compared with SG3511 [16]: 54.8±13.8% | reduction of β6 expression compared to PBS [16]: 73.4±11% | reduction of β6 expression compared to SG3511 [16]: 61.1±16.1% | binding to A375Ppuro cells (MFI) [17]: failed to bind | reduced growth more than SG3511 [18]: 2.3 fold | reduction of tumor growth compared with PBS treatment [18]: 79±7% | PDC αvβ6 Specificity Ratio [19]: 15.02 | more potent in A375Pβ6 cells than SG3511 [19]: over 15 fold | more selective for A375Pβ6 cells than A375Ppuro cells [19]: 5.7 fold | IC50 ([19]; 72 h): 5.37 ± 5.23 nM | PDC αvβ6 Specificity Ratio [20]: 3.30 | IC50 ([20]; 72 h): 30.6 ± 18.8 nM | increase in DNA damage (γH2AX) compared with PBS [21]: 5.9 fold | increase in apoptosis (cleaved-caspase 3) from PBS [21]: 5.8 fold | increased vimentin compared with PBS [21]: 4.6 fold | increased α-sma expression from PBS [21]: 1.9 fold | reduction in CK-positive epithelial cells compared with PBS [21]: 79.2±11.2% | reduction in E-cadherin-positive epithelial cells compared with PBS [21]: 85±8% | reduction in proliferation (Ki67 staining) compared with SG3511 [21]: 66.2±15.7% | reduction in proliferation (Ki67 staining) compared with control [21]: 67.5±15%
